Data as given in patent US10829649B2, “Methods and coatings for protecting surfaces from bio-fouling species” (priority 2018, dated 2020).
Values after ≈ are worked out from the molar mass of the structure shown. Where two headings read alike, the source gives them in different places.

Experiments:
[1] = soil and water runoff; cited from earlier work
[2] = cited from earlier work
[3] = test system: barnacle or mussel larvae; assay: biocide-impregnated polymer without outer biostatic layer exposed to larvae; format: in vivo; details: weeks or months later; no outer biostatic layer
From the text: With respect to undesirable effects on the aquatic environment and the benign and beneficial organisms that reside there, the outer biostatic layer is less potentially hazardous both for the chemical and physical reasons mentioned above and shields the water from contact with the more potentially hazardous inner biocidal layer. Also, when an occasional barnacle or mussel larva penetrates the outer layer and touches the inner layer as a juvenile, it is killed quickly and outright on contact. It has been experimentally observed that, when a polymer impregnated with a biocidal biocide such as ivermectin is exposed to barnacle or mussel larvae, and there is no outer biostatic attachment inhibiting polymer layer present, that larvae do attach regardless and grow on the surface of the polymer layer. The organisms with their tiny shells can be seen with a magnifying glass. […] With the present embodiments, the area of the puncture site of the inner layer is microscopic and thus nothing leaks out of the inner layer into the surrounding water.

Row | Molecule | adsorption coefficient KOC [1] | water solubility [2] | also measured
1 | CC[C@H]1CCC[C@H](O[C@H]2CC[C@H](N(C)C)[C@@H](C)O2)[C@@H](C)C(=O)C2=C[C@@H]3[C@@H](C=C(C)[C@@H]4C[C@@H](O[C@@H]5O[C@@H](C)[C@H](OC)[C@@H](OC)[C@H]5OC)C[C@@H]34)[C@@H]2CC(=O)O1 [spinosad D] | 34,600 |  | 
2 | [Ag+].[O-][n+]1ccccc1[S-] [silver pyrithione] |  |  | water solubility ([2]; silver pyrithione): about 37 per L
3 | Cc1cccc(C(C)c2cnc[nH]2)c1C (stereo not shown) [Medetomidine] |  | 186 µg/mL (≈ 929 µM) | 
4 | ivermectin |  |  | adult barnacles or mussels on the polymer layer [3]: no adult barnacle or mussel adults are seen
5 | pyrethrins | > 100,000 | < 0.1 µg/mL | 
6 | zinc pyrithione |  |  | water solubility ([2]; metal pyrithione salts): about 12 mg per L
7 | [O]=[Zn] [zinc oxide] |  |  | water solubility ([2]; pure water): about 16 mg/L
8 | spinosad | 34,600 |  | 
9 | CC(C)[C@]12O[C@H]1[C@@H]1O[C@]13[C@]1(O[C@H]1C[C@H]1C4=C(CC[C@@]13C)C(=O)OC4)[C@@H]2O [triptolide] |  | 0.017 µg/mL (≈ 0.0472 µM) | 
